Data taken from paper PMC5712788, “DM9 Domain Containing Protein Functions As a Pattern Recognition Receptor with Broad Microbial Recognition Spectrum” (Frontiers in Immunology, 2017).

Target: T1, CgDM9CP-1 (rCgDM9CP-1) (Magallana gigas, UniProt K1QRB6)
T1 construct: gene CGI_10011001; recombinant, E. coli Transetta (DE3); two DM9 domains; mutants in pET-28a with N-terminal 6xHis; 5MH2 is D22A, 5MH3 is K43A
T1 sequence (K1QRB6 1-143): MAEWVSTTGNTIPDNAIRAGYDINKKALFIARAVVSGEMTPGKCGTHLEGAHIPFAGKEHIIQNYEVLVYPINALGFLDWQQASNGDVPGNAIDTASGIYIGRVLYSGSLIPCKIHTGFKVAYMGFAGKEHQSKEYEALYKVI
Assay: ITC
Type: binding
Conditions: 25°C, PBS (pH 7.2 in table, 7.4 in methods), N = 1
Text: ITC on CgDM9CP-1 (rCgDM9CP-1)

OC[C@H]1OC(O)[C@@H](O)[C@@H](O)[C@@H]1O (stereo partly drawn) [D-mannose]
Kd: 123 ± 19.7 µM | Value: 8.16 ± 0.19 10^3 M^−1
